The source made the active and inactive calls. The rule behind the calls is not given here.
Assays:
[1] = Displacement of [3H]-(+)-MK 801 from PCP binding site of NMDA receptor in pig brain cortex membranes after 120 mins by liquid scintillation spectrometry; type: cell membranes, Sus scrofa
[2] = target: T1, Sigma intracellular receptor 2 (Rattus norvegicus, UniProt Q5U3Y7); experiment: Displacement of [3H]-DTG from sigma2 receptor in rat liver membranes after 120 mins by liquid scintillation counting; type: cell membranes, Membrane
T1 sequence (Q5U3Y7 whole entry): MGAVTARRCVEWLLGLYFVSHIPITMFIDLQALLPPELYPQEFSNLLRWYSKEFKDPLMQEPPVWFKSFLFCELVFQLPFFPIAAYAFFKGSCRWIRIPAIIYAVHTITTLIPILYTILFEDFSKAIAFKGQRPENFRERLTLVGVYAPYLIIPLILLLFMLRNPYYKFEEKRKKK

[3] = target: Sigma non-opioid intracellular receptor 1 (Cavia porcellus, UniProt Q60492); experiment: Displacement of [3H]-pentazocine from sigma1 receptor in guinea pig brain membranes after 120 mins by liquid scintillation counting; type: cell membranes, Membrane
Sus scrofa = species: Sus scrofa; experiment: Displacement of [3H]-(+)-MK 801 from PCP binding site of NMDA receptor in pig brain cortex membranes at 1 uM after 120 mins by liquid scintillation spectrometry; type: cell membranes
[4] = target: T1, Sigma intracellular receptor 2; experiment: Displacement of [3H]-DTG from sigma2 receptor in rat liver membranes in presence of (+)-pentazocine; type: cell membranes, Membrane
[5] = target: C-8 sterol isomerase ERG2 (Saccharomyces cerevisiae S288c) (UniProt P32352); experiment: Inhibition of yeast sterol-delta8/7-isomerase assessed as accumulation of cholesta-8,14-dien-3beta-ol at 50 uM
[6] = target: C-8 sterol isomerase ERG2 (Saccharomyces cerevisiae S288c) (UniProt P32352); experiment: Inhibition of yeast sterol-delta8/7-isomerase assessed as accumulation of cholesta-5,7-dien-3beta-ol at 50 uM
[7] = target: C-8 sterol isomerase ERG2 (Saccharomyces cerevisiae S288c) (UniProt P32352); experiment: Inhibition of yeast sterol-delta8/7-isomerase assessed as accumulation of cholesta-7-en-3beta-ol at 50 uM
[8] = target: C-8 sterol isomerase ERG2 (Saccharomyces cerevisiae S288c) (UniProt P32352); experiment: Inhibition of yeast sterol-delta8/7-isomerase assessed as accumulation of cholesta-8-en-3beta-ol at 1 uM
[9] = target: C-8 sterol isomerase ERG2 (Saccharomyces cerevisiae S288c) (UniProt P32352); experiment: Inhibition of yeast sterol-delta8/7-isomerase assessed as accumulation of cholesta-7-en-3beta-ol at 1 uM
[10] = target: C-8 sterol isomerase ERG2 (Saccharomyces cerevisiae S288c) (UniProt P32352); experiment: Inhibition of yeast sterol-delta8/7-isomerase assessed as accumulation of cholesta-8-en-3beta-ol at 50 uM
[11] = target: C-8 sterol isomerase ERG2 (Saccharomyces cerevisiae S288c) (UniProt P32352); experiment: Inhibition of yeast sterol-delta8/7-isomerase assessed as accumulation of cholesta-5,7-dien-3beta-ol at 1 uM
[12] = target: C-8 sterol isomerase ERG2 (Saccharomyces cerevisiae S288c) (UniProt P32352); experiment: Inhibition of yeast sterol-delta8/7-isomerase assessed as accumulation of cholesta-8,14-dien-3beta-ol at 1 uM
[13] = target: C-8 sterol isomerase ERG2 (Saccharomyces cerevisiae S288c) (UniProt P32352); experiment: Inhibition of yeast sterol-delta8/7-isomerase at 50 uM
HL-60 = experiment: Inhibition of cholesteriol biosynthesis in human HL60 cells assessed as incorporation of 2-13C-acetate; type: functional, cell-based
[14] = target: C-8 sterol isomerase ERG2 (Saccharomyces cerevisiae S288c) (UniProt P32352); experiment: Inhibition of yeast sterol-delta8/7-isomerase at 1 uM

Chain of Sigma non-opioid intracellular receptor 1 (Q60492 whole entry): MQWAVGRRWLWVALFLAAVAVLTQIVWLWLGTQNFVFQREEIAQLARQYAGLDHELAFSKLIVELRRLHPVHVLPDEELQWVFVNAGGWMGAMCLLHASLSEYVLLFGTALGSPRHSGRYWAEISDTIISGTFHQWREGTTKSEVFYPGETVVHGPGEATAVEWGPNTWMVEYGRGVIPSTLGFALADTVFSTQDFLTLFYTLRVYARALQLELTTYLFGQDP
Chain of C-8 sterol isomerase ERG2 (Saccharomyces cerevisiae S288c) (P32352 whole entry, looked up): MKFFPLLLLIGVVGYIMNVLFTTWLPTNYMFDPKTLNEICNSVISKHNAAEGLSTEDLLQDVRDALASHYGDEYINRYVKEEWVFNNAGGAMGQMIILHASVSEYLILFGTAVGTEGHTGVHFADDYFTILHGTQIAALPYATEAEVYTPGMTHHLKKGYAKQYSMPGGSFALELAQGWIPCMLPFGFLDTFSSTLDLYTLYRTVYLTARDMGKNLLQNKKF

Row | Compound | IC50 [1] | Ki [2] | Ki [3] | inhibition (Sus scrofa) | Ki [4] | inhibition [5] | inhibition [6] | inhibition [7] | inhibition [8] | inhibition [9] | inhibition [10] | inhibition [11] | inhibition [12] | inhibition [13] | IC50 (HL-60) | inhibition [14]
1 | OC(CN1CCCN(Cc2ccccc2)[C@H](Cc2ccccc2)C1)c1ccccc1 (stereo not given in full) | 1000 nM | > 1000 nM | 51 nM | 50% |  |  |  |  |  |  |  |  |  |  |  | 
2 | c1ccc2c(c1)CCCC2CCCCN1CCN(C2CCCCC2)CC1 (stereo not given) |  |  |  |  | 14.6 nM |  |  |  |  |  |  |  |  |  |  | 
3 | C[C@H]1CN(CC2CCCCC2)CCCN1Cc1ccccc1 | > 1000 nM | 7.4 nM | 0.22 nM |  |  | inactive | Active | Active | inactive | Active | inactive | Active | inactive |  |  | 
4 | CN1CCCN(Cc2ccccc2)[C@@H](Cc2ccccc2)C1 | > 1000 nM | > 1000 nM | 448 nM |  |  | inactive | Active | Active | inactive | Active | inactive | Active | Active |  |  | 
5 | c1ccc(C[C@@H]2CN(Cc3ccccc3)CCCN2Cc2ccccc2)cc1 | > 1000 nM | 514 nM | 80 nM |  |  | Active | Active | Active | Active | Active | Active | Active | Active | Active |  | 
6 | CCCCN1CCCN(Cc2ccccc2)[C@H](C)C1 | > 1000 nM | 372 nM | 0.37 nM |  |  | inactive | Active | Active | Active | Active | inactive | inactive | Active |  |  | 
7 | c1ccc(CCCN2CCCN(Cc3ccccc3)[C@H](Cc3ccccc3)C2)cc1 | > 1000 nM | 300 nM | 25 nM |  |  | Active | Active | Active | Active | Active | Active | inactive | Active |  |  | 
8 | c1ccc(CCCCN2CCCN(Cc3ccccc3)[C@H](Cc3ccccc3)C2)cc1 | > 1000 nM | 423 nM | 28 nM |  |  | Active | Active | Active | inactive | Active | Active | Active | inactive |  |  | 
9 | CCCCN1CCCN(Cc2ccccc2)[C@@H](C)C1 | > 1000 nM | 276 nM | 0.61 nM |  |  | inactive | Active | Active | Active | Active | inactive | Active | Active |  |  | 
10 | CC(C)=CCN1CCCN(Cc2ccccc2)[C@H](Cc2ccccc2)C1 | > 1000 nM | 325 nM | 5 nM |  |  | Active | Active | Active | inactive | Active | inactive | Active | inactive |  |  | 
11 | c1ccc(C[C@H]2CN(Cc3ccccc3)CCCN2Cc2ccccc2)cc1 | > 1000 nM | > 1000 nM | 71 nM |  |  | Active | Active | Active | Active | Active | inactive | Active | Active | Active |  | 
12 | c1ccc(CCN2CCCN(Cc3ccccc3)[C@@H](Cc3ccccc3)C2)cc1 | > 1000 nM | 426 nM | 40 nM |  |  | Active | Active | Active | Active | Active | Active | Active | Active | Active |  | 
13 | COc1ccc(CN2CCCN(Cc3ccccc3)[C@@H](Cc3ccccc3)C2)cc1 | > 1000 nM | > 1000 nM | 29 nM |  |  | Active | Active | Active | Active | inactive | inactive | Active | Active |  |  | 
14 | c1ccc(C[C@H]2CNCCCN2Cc2ccccc2)cc1 | > 1000 nM | > 10000 nM | > 1000 nM |  |  | Active | inactive | Active | Active | Active | inactive | Active | Active |  |  | 
15 | COc1ccc(CN2CCCN(Cc3ccccc3)[C@H](Cc3ccccc3)C2)cc1 | > 1000 nM | 426 nM | 42 nM |  |  | Active | Active | Active | Active | Active | inactive | Active | Active | Active |  | 
16 | c1ccc(C[C@@H]2CNCCCN2Cc2ccccc2)cc1 | > 1000 nM | > 1000 nM | > 1000 nM |  |  | Active | Active | Active | Active | Active | inactive | Active | Active |  |  | 
17 | OCC(c1ccccc1)N1CCCN(Cc2ccccc2)[C@H](Cc2ccccc2)C1 (stereo not given in full) | 1000 nM | > 1000 nM | 27 nM | 50% |  |  |  |  |  |  |  |  |  |  |  | 
18 | CCCCN1CCCN(Cc2ccccc2)[C@H](Cc2ccccc2)C1 | > 1000 nM | 169 nM | 3.9 nM |  |  | Active | Active | Active | Active | Active | inactive | Active | Active | Active |  | 
19 | COc1ccc(CN2CCCN(Cc3ccccc3)[C@@H](C(C)C)C2)cc1 | > 1000 nM | > 1000 nM | 20 nM |  |  | inactive | Active | Active | Active | Active | Active | Active | Active |  |  | 
20 | CN1CCCN(Cc2ccccc2)[C@H](Cc2ccccc2)C1 | > 1000 nM | > 1000 nM | 280 nM |  |  | Active | Active | Active | inactive | Active | Active | Active | Active |  |  | 
21 | CCCCN1CCCN(Cc2ccccc2)[C@@H](Cc2ccccc2)C1 | > 1000 nM | 238 nM | 3.7 nM |  |  | Active | Active | Active | inactive | Active | inactive | Active | Active |  | 742 nM | Active
22 | COc1cccc2c1CCCC2CCCN1CCN(C2CCCCC2)CC1 (stereo not given) |  |  |  |  | 0.34 nM |  |  |  |  |  |  |  |  |  |  | 

From ChEMBL document CHEMBL4043136, “Chiral-pool synthesis of 1,2,4-trisubstituted 1,4-diazepanes as novel σ1 receptor ligands” (Bioorg Med Chem, 2017)
